Measured values: ChEMBL document CHEMBL5625270, “Targeting ATP-binding site of WRN Helicase: Identification of novel inhibitors through pocket analysis and Molecular Dynamics-Enhanced virtual screening” (Bioorg Med Chem Lett, 2024)
The source made the active and inactive calls. No cut-off for these calls is given here.

Experiments:
[1] = target: T1, Bifunctional 3'-5' exonuclease/ATP-dependent helicase WRN (Homo sapiens, UniProt Q14191); test: Inhibition of WRN (unknown origin) ATPase activity
[2] = Inhibition of HSP90 (unknown origin) ATPase activity; design: species or system Homo sapiens
[3] = system: Microsatellite instability cancer cell; test: Cytotoxicity against Microsatellite instability cancer cell (unknown origin); assay type: functional, cell-based
[4] = target: T1, Bifunctional 3'-5' exonuclease/ATP-dependent helicase WRN; test: Inhibition of recombinant human WRN unwinding activity by immunosorbent-based helicase unwinding assay
[5] = target: RecQ-like DNA helicase BLM (Homo sapiens, UniProt P54132); test: Inhibition of BLM (unknown origin) ATPase activity
Sequence of RecQ-like DNA helicase BLM (P54132 whole entry): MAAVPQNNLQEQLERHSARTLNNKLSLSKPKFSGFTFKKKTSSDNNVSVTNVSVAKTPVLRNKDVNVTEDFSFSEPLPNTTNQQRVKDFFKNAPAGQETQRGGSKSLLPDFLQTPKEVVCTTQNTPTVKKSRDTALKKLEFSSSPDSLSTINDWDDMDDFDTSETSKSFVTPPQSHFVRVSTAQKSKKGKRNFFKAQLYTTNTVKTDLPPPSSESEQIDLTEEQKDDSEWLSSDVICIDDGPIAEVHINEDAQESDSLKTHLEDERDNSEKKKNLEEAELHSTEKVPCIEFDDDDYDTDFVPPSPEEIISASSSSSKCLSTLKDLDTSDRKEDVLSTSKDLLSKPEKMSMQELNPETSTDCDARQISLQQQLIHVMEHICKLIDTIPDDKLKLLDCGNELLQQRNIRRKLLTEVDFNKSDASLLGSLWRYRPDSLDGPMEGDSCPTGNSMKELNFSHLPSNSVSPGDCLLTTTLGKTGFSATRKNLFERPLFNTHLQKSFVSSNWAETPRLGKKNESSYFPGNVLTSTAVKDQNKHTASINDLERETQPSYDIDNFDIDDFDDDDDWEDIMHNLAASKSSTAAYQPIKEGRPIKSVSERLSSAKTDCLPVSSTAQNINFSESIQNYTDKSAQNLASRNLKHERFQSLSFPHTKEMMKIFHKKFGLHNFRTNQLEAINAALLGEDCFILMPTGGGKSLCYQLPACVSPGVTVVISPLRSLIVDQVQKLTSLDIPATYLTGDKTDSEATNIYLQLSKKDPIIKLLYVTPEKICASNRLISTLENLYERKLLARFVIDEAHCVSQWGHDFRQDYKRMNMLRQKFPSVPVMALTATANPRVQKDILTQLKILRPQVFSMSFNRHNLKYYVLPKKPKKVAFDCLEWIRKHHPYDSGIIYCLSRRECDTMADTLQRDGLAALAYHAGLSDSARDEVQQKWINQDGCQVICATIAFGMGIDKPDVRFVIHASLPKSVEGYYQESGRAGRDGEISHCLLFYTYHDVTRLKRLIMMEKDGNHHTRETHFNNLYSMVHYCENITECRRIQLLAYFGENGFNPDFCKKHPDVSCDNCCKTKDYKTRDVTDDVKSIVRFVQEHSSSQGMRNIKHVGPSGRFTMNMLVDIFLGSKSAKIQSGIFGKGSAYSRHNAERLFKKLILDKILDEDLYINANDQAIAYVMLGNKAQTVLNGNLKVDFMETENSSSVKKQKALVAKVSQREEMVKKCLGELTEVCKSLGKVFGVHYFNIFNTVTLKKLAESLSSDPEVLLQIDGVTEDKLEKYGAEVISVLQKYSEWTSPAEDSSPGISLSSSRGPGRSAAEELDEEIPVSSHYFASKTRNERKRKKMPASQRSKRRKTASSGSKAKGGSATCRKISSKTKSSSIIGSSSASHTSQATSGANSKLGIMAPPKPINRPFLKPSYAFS

[6] = target: T2, Eukaryotic initiation factor 4A-I (Homo sapiens, UniProt P60842); test: Inhibition of eIF4A (unknown origin) ATPase activity within 200 uM
T2 sequence (P60842 whole entry): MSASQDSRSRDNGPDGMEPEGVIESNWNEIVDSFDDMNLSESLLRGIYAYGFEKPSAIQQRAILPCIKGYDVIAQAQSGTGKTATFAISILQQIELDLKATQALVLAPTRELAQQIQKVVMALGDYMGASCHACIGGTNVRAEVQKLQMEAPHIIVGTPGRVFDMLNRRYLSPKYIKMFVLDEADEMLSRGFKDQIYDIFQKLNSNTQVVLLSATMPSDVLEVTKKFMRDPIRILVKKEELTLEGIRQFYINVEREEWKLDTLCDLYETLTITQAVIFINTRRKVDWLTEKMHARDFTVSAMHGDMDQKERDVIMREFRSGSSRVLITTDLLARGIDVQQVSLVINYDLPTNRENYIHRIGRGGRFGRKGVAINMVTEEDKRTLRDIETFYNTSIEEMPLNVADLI

[7] = target: T1, Bifunctional 3'-5' exonuclease/ATP-dependent helicase WRN; test: Inhibition of WRN (unknown origin)
Homo sapiens [8] = species: Homo sapiens; test: Inhibition of HSP90 (unknown origin) ATPase activity within 200 uM
[9] = target: T2, Eukaryotic initiation factor 4A-I; test: Inhibition of eIF4A (unknown origin) ATPase activity at <200 uM
[10] = target: T2, Eukaryotic initiation factor 4A-I; test: Inhibition of eIF4A (unknown origin) ATPase activity
Homo sapiens [11] = species: Homo sapiens; test: Inhibition of HSP90 (unknown origin) ATPase activity at <200 uM

T1 sequence (Q14191 whole entry): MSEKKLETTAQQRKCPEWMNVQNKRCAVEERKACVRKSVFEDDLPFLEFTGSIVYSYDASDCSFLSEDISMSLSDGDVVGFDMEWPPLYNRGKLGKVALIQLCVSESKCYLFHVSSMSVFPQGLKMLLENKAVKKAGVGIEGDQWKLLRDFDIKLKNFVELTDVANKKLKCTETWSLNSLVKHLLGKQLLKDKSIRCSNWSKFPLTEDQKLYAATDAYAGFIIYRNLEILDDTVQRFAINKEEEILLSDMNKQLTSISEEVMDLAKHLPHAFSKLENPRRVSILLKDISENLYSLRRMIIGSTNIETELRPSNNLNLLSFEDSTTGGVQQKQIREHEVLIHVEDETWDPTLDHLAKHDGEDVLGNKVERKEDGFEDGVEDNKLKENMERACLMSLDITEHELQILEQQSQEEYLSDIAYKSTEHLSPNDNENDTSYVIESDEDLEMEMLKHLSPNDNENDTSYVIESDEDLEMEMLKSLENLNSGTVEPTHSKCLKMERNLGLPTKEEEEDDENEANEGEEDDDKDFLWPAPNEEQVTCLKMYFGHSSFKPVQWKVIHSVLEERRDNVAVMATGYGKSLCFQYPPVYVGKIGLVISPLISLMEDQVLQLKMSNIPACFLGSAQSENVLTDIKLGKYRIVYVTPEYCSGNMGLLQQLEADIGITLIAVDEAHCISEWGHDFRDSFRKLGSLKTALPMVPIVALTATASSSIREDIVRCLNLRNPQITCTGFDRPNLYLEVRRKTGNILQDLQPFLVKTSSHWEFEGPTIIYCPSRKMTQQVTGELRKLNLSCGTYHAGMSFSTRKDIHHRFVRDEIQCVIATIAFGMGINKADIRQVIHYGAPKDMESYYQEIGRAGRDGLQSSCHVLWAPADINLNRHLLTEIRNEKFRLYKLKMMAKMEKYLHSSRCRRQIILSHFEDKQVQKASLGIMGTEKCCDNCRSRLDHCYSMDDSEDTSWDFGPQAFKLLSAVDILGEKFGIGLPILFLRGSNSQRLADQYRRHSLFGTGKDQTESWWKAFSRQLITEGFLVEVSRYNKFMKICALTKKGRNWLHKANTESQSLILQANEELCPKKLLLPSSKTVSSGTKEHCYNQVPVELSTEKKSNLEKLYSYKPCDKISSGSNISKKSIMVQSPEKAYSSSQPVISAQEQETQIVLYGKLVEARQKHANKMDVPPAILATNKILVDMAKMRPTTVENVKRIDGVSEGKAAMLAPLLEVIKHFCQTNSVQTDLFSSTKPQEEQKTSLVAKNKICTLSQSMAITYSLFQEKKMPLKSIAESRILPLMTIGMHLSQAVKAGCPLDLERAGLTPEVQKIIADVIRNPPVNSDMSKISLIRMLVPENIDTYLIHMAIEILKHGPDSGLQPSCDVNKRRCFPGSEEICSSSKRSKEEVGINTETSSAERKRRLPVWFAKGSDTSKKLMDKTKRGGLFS

Structure (SMILES)	IC50 [1] [µM]	IC50 [2] [µM]	Activity [3]	IC50 [4] [µM]	IC50 [5] [µM]	inhibition [6]	IC50 [7] [µM]	inhibition (Homo sapiens [8])	inhibition [9]	IC50 [10] [µM]	inhibition (Homo sapiens [11])
Cc1ccc(NC(=O)CN2C(=O)N/C(=C/c3ccccc3OCc3cccc(C(=O)O)c3)C2=O)cc1	15.8	47.6	inactive	9.8	26.3	inactive					
COc1ccc2nc(O)c(-c3noc(-c4ccccc4)n3)cc2c1							2.3				
CCC(=O)OCN1C(=O)C=CC1=O	10.4				1.6			inactive	Active	> 200	
O=C1/C(=C2\Nc3ccc(S(=O)(=O)O)cc3C2=O)Nc2ccc(S(=O)(=O)O)cc21 [INDIGOTINDISULFONATE]	5	> 200		0.2	3.3				Active	> 200	Active
COc1ccc2nc(O)c(-c3noc(-c4ccc(F)cc4)n3)cc2c1							13				
CC(C)(CN1C(=O)C(Cl)=C(Cl)C1=O)CN1C(=O)C(Cl)=C(Cl)C1=O	88.7				11.3	inactive	0.23	inactive			
